Structures are written as SMILES.

For the molecule `COc1cc2c(cc1OC)C(c1ccccc1)NCC2` (stereo not drawn), the melting point (as a rule, the temperature, or range, at which the solid turns liquid) is 111 to 113 °C. As for `CC(C)CNC(=O)CC#N`, the figure is 57 to 59 °C; as for `COCCn1c(C)cc(C=O)c1C`, 44 to 46 °C; as for `Cc1ccc(S(=O)(=O)OC(c2nc(C)cs2)C(F)(F)F)cc1` (stereo not drawn), 105 to 107 °C. As for `N#CCCn1c(S)nc2ccccc21`, the figure is 154 to 158 °C. On to `Nc1ccc(S(=O)(=O)N2CCCC(C(=O)O)C2)cc1` (stereo not drawn), for which the melting point fell in the range of 195 to 197 °C. `CC(C)(C)OC(=O)Nc1csc(Br)c1` had a melting point of 84 to 86 °C.

As for `Nc1ccccc1Oc1ncc(Cl)cc1Cl`, the melting point fell in the range of 104 to 106 °C. Regarding `Nc1cc(C2CCOCC2)no1`, the melting point was in the range of 159 to 161 °C. Molecule `Cc1nn(C)c(C)c1C(O)C(F)(F)F` (stereo not drawn) displayed a melting point of 140 to 142 °C. For the molecule `NC(=O)Nc1ccc(C(=O)O)cc1`, the melting point fell in the range of 296 to 298 °C. `COC(=O)Cn1ccc(N)n1` yielded a melting point of 74 to 76 °C.

Molecule `CCc1cccc(OCC(=O)O)c1` displayed a melting point of 66 to 70 °C. `CCc1nc(COc2ccc(C(=O)OC)cc2)no1`: the melting point is 44 to 46 °C. The result for `O=C1CCS(=O)(=O)c2ccc(Br)cc21` reads 146 to 148 °C; that for `O=C(NC1CCCC1)c1cnc(Cl)c(Cl)c1`, 159 to 161 °C. Take `Cc1cc(NC(=O)c2ccccc2Cl)sc1C(=O)O`: the melting point lay in the range of 223 to 225 °C.

As for `Cc1c(Cl)cccc1OCC(=O)O`, the melting point lay within 143 to 145 °C.

With `NC(=S)c1ccoc1`, the melting point lay within 103 to 105 °C.

The molecule `O=c1ccccn1Cc1ccc(Cl)c([N+](=O)[O-])c1` yielded a melting point of 92 to 94 °C.

Take `O=Cc1ccc(Cl)nc1`: the melting point was 75 to 77 °C. As for `O=C(O)c1sc(-c2ccccc2)cc1OCC(=O)N1CCCCC1`, the figure is 164 to 166 °C; as for `CNc1ccc(F)cc1[N+](=O)[O-]`, 71 to 73 °C. Molecule `Cc1ccc(Oc2ccc(N)cc2Cl)c(Br)c1` showed a melting point of 110 to 112 °C. `COc1ccc(-c2ccc(C=O)o2)c([N+](=O)[O-])c1` registered a melting point of 107 to 109 °C. `Cc1ccc(Cl)cc1C(N)=O` came in with a melting point of 150 to 152 °C. For `OCC#Cc1ccc(Oc2ccccc2)cc1`, the melting point lay in the range of 42 to 44 °C.

`Nc1nc(-c2c(F)cccc2F)co1`: the melting point lay in the range of 139 to 141 °C. With `CS(=O)(=O)c1ccc(F)c(C(=O)O)c1F`, the melting point lay within 175 to 177 °C. As for `N#CCc1ccc(-n2cccn2)cc1`, the figure is 127 to 129 °C; as for `CCN1N=C(C(F)(F)F)CC1=O`, 169 to 171 °C; as for `CC1(C)CCC(C#N)=C1N`, 108 to 110 °C. In the case of `Nc1nc(-c2ccc(Cl)cc2)n[nH]1`, the melting point lay in the range of 219 to 221 °C. Consider `O=Cc1ccc([N+](=O)[O-])cc1F`, for which the melting point was in the range of 84 to 86 °C. `COc1cc(C(=O)O)cc(Br)c1O` returned a melting point of 197 to 199 °C. `O=C(O)c1cc[nH]c(=O)c1` came in with a melting point of 299 to 301 °C. As for `O=C(O)c1cccc(-n2ccc(C(F)(F)F)n2)c1`, the figure is 159 to 161 °C; as for `Nc1ccc(-c2nnc[nH]2)cc1`, 203 to 205 °C; as for `O=C(O)C1CCCN(c2nccs2)C1` (stereo not drawn), 121 to 123 °C.

Take `O=C(CBr)c1cccc(N2CCCC2=O)c1`: the melting point lay in the range of 83 to 85 °C.

`CC1CCN(S(=O)(=O)c2ccc(N)cc2)CC1` had a melting point of 108 to 110 °C.

The molecule `Cn1c(C(=O)O)ccc1-c1ccc(F)cc1` gave a melting point of 159 to 161 °C.

`Cc1n[nH]c(C)c1CCC(=O)O`: the melting point is 169 to 171 °C. With `CSc1c[nH]nc1N`, the melting point was 76 to 78 °C. Turning to `Cc1cc(S(N)(=O)=O)c(F)cc1F`, the melting point lay within 97 to 99 °C.

The molecule `CC(=O)Nc1cc2ccccc2cc1C(=O)O` gave a melting point of 190 to 192 °C.

Regarding `Fc1cccc(CCNC2=NCCS2)c1`, the melting point is 74 to 76 °C.

For `O=C(O)CNC(=O)c1ccc(C(F)(F)F)cc1`, the melting point lay within 154 to 156 °C.

The molecule `O=C(O)c1cnc(OCC(F)(F)F)c(Cl)c1` had a melting point of 162 to 164 °C. `O=[N+]([O-])c1ccc(Cl)c2cccnc12` yielded a melting point of 130 to 138 °C.

As for `O=C(O)c1ccc(Cl)o1`, the melting point is 180 to 182 °C. With `N#CCN1CCC(O)CC1`, the melting point was in the range of 76 to 78 °C. The result for `O=Cc1ccc(N2CCNCC2)s1` reads 59 to 63 °C.

`Cn1cc(S(N)(=O)=O)cn1` showed a melting point of 121 to 123 °C. Molecule `Nc1ccnn1Cc1ccsc1` displayed a melting point of 33 to 35 °C. `CCS(=O)(=O)c1ccc(Cl)cc1N` came in with a melting point of 85 to 87 °C.

Molecule `O=C(O)c1ccc(S(=O)(=O)Nc2nccs2)cc1` gave a melting point of 289 to 291 °C.

In the case of `CN1Cc2ccccc2NC1=O`, the melting point lay in the range of 200 to 203 °C. `CCn1c(C=O)nc2ccccc21` returned a melting point of 49 to 51 °C. The result for `O=C(O)COc1ccc(S(=O)(=O)Cl)cc1Cl` reads 123 to 125 °C; that for `CNC(=O)c1cc(Cl)ccc1[N+](=O)[O-]`, 137 to 139 °C; that for `CS(=O)(=O)Cc1nc2ccccc2n1CC(=O)O`, 249 to 251 °C.

As for `Cc1c(CN)cnn1C`, the melting point was in the range of 38 to 40 °C.

In turn, `CC(Sc1ccnc2cc(Cl)ccc12)C(=O)O` (stereo not drawn) displayed a melting point of 201 to 203 °C. `Cc1cc(Cl)cc2cc(C#N)oc12`: the melting point was in the range of 113 to 115 °C. As for `Cc1ccc(N(C)C(C)C)c(C(=O)O)c1`, the figure is 69 to 71 °C; as for `NN=C1C(=O)Nc2c(Cl)cc(Cl)cc21`, 261 to 263 °C; as for `COC(=O)c1cccc(N2CC(=O)NC2=O)c1`, 189 to 191 °C. In the case of `CNC(=O)COc1ccc(C=O)cc1OC`, the melting point was in the range of 105 to 107 °C. `O=C(O)c1csc(-c2ccc(Cl)c(Cl)c2)n1` returned a melting point of 212 to 214 °C. `Nc1ccc(S(=O)C(F)(F)F)cc1` (stereo not drawn) gave a melting point of 76 to 78 °C. As for `Cc1nc(C)n(Cc2cccc(N)c2)n1`, the figure is 109 to 111 °C; as for `OCC1Cc2cc(Br)ccc2O1` (stereo not drawn), 63 to 65 °C. In turn, `O=Cc1ccccc1OCc1cn2ccccc2n1` returned a melting point of 123 to 125 °C. `CCOC(=O)c1nc(-c2cccs2)oc1N`: the melting point was in the range of 164 to 166 °C. Take `CNC(c1cccnc1)c1ccc(Cl)cc1Cl` (stereo not drawn): the melting point fell in the range of 111 to 113 °C.

For the molecule `O=C(O)/C=C/S(=O)(=O)c1ccccc1`, the melting point is 190 to 192 °C. For the molecule `O=C(O)c1cccc(OCc2ccccc2OC(F)F)c1`, the melting point was 139 to 141 °C. `CN(C)S(=O)(=O)c1ccccc1C(N)=S` yielded a melting point of 154 to 156 °C. In the case of `CCOC(=O)c1ccncc1N`, the melting point is 173 to 175 °C. Molecule `COC(=O)c1c(C)n(C)c2ccc(O)cc12` gave a melting point of 223 to 225 °C. `C=CCNc1ncc(C(=O)O)s1` gave a melting point of 169 to 171 °C. As for `CC(C)Oc1cc(Br)ccc1C(=O)O`, the melting point was in the range of 86 to 88 °C. `Cc1ccc(S(N)(=O)=O)c(C)c1` gave a melting point of 139 to 141 °C. `Cc1c(N)cccc1NC(=O)c1ccccc1I`: the melting point is 198 to 200 °C. Consider `O=C1CN(Cc2ccccc2)CCN1`, for which the melting point lay in the range of 150 to 152 °C. In the case of `CC1CCCN1CC(=O)O` (stereo not drawn), the melting point is 167 to 169 °C. In turn, `COc1ccc(S(N)(=O)=O)cc1OC` had a melting point of 135 to 137 °C. For `Cc1c(C(=O)O)cnn1-c1ccccc1Cl`, the melting point is 149 to 151 °C. In turn, `CCOc1cc(C=O)ccc1OCc1ccc(C(C)(C)C)cc1` had a melting point of 113 to 115 °C. With `CC(C)n1[nH]ccc1=NC(=O)Nc1ccccc1`, the melting point fell in the range of 110 to 112 °C. `Cc1ccc(-n2nc(C(=O)O)c3c2CCC3)cc1` had a melting point of 224 to 226 °C.

The molecule `NNC(=O)CNc1cccc(C(F)(F)F)c1` yielded a melting point of 80 to 82 °C. For `COc1cc(C(=O)O)ccc1OC1CCCC1`, the melting point was in the range of 153 to 155 °C.

The molecule `O=C(O)c1ccc(F)cc1I` displayed a melting point of 144 to 146 °C.

As to `COC(=O)C(CO)NC(=O)C1CCCCC1` (stereo not drawn), the melting point fell in the range of 109 to 111 °C. With `CC1(C)CC(C=Cc2ccccn2)=Cc2c1sc(N)c2C#N`, the melting point fell in the range of 200 to 202 °C. As for `CC(C)(CC(=O)O)CC(=O)N1CCOCC1`, the figure is 80 to 82 °C. The result for `O=c1cc(CCl)c2cc3c(cc2o1)CCC3` reads 142 to 144 °C; that for `COC(=O)c1nc(-c2ccccc2)oc1N`, 193 to 195 °C; that for `O=C(O)c1cc[nH]c1`, 129 to 131 °C. For the molecule `CC(=O)N1CCCc2cc(Br)ccc21`, the melting point fell in the range of 59 to 61 °C.

`CN(c1ccc(C(=O)O)cc1)C1CCCCC1` came in with a melting point of 148 to 150 °C.

For `CCC(=O)c1ccc(N(C)C)cc1`, the melting point was in the range of 104 to 106 °C. Molecule `O=c1[nH]c2cc([N+](=O)[O-])ccc2o1` yielded a melting point of 229 to 231 °C. The result for `COc1nnc(Cl)c2ccccc12` reads 99 to 101 °C; that for `CC(C)Oc1ccc(S(=O)(=O)Cl)c2ccccc12`, 93 to 95 °C.

Take `N#Cc1cc(Cl)nc2ccc(Cl)cc12`: the melting point lay within 168 to 170 °C.

In the case of `Clc1cc(N2CCSCC2)ncn1`, the melting point lay in the range of 134 to 136 °C. With `O=C1NS(=O)(=O)c2ncccc21`, the melting point lay in the range of 199 to 201 °C. As to `O=C(O)CCN1C(=O)CCc2ccccc21`, the melting point is 157 to 159 °C.

In turn, `O=C1Nc2ccccc2N2CCC12` (stereo not drawn) gave a melting point of 169 to 171 °C. In the case of `NS(=O)(=O)CCN1CCNCC1`, the melting point lay in the range of 144 to 146 °C.

With `COc1cc(C(=O)O)ccc1OCc1cnn(C)c1`, the melting point fell in the range of 182 to 184 °C. In turn, `Cc1ccc(O)c(C(=O)NO)c1` yielded a melting point of 179 to 181 °C. The result for `Cc1nn(Cc2ccccc2)c(C)c1CN` reads 39 to 41 °C. In turn, `CC1CCC(CC(=O)O)CC1` (stereo not drawn) came in with a melting point of 58 to 60 °C.

As to `Cc1cc(C(=O)N2CCCC(C)C2)ccc1N` (stereo not drawn), the melting point was 128 to 130 °C. The molecule `c1ccc(Cn2ccnc2)nc1` showed a melting point of 63 to 65 °C.

In the case of `Sc1nnc(NC2CC2)s1`, the melting point was in the range of 170 to 172 °C. The molecule `O=[N+]([O-])c1ccccc1OCC1CO1` (stereo not drawn) had a melting point of 52 to 54 °C. Molecule `CC(C)c1cccc(N2CC(C(=O)O)CC2=O)c1` (stereo not drawn) displayed a melting point of 126 to 128 °C. As for `COC(=O)c1cc2c(C)c(C)ccc2[nH]1`, the melting point lay in the range of 144 to 146 °C.

For the origin of these results see a melting point compilation (Tetko et al.).
